Experimental data taken from patent US4731109A, “Herbicidal 2-haloacetanilides” (Monsanto Company, priority 1982, dated 1988).

Columns and labels:
purple nutsedge = assay: Greenhouse pre-emergence GR15/GR85 selectivity test; type: in vivo
Description: (§1) A good grade of top soil is placed in aluminum pans and compacted to a depth of three-eighths to one-half inch from the top of the pan. On the top of the soil is placed a number of seeds or vegetative propagules of various plant species. The soil required to level fill the pans after seeding or adding vegetative propagules is weighed into a pan. The soil and a known amount of the active ingredient applied in a solvent or as a wettable powder suspension are thoroughly mixed, and used to cover the prepared pans. After treatment, the pans are given an initial overhead irrigation of eater, equivalent to one-fourth inch (0.64 cm) rainfall, then watered by subirrigation as need to give adequate moisture for germination and growth. As an alternative procedure, the overhead irrigation may be omitted. Observations are made about 2-3 weeks after seeding and treatment.
(§2) In the discussion and tables of data below, reference is made to herbicide application rates symbolized as "GR15 " and "GR85 "; these rates are given in kilograms per hectare (kg/ha) which are convertible into pounds per acre (lbs/A) by dividing the kg/ha rate by 1.12.
(§3) A further guide to the effectiveness of a chemical as a selective herbicide is the "selectivity factor" ("SF") for a herbicide in given crops and weeds. The selectivity factor is a measure of the relative degree of crop safety and weed injury and is expressed in terms of the GR15 /GR85 ratio, i.e., the GR15 rate for the crop divided by the GR85 rate for the weed, both rates in kg/ha (lb/A). In the tables below, selectivity factors are shown in parenthesis following the GR85 rate for each weed; the symbol "NS" indicates "non-selective". Marginal or undetermined selectivity is indicated by a dash (--).
(§4) Additionally, pre-emergence herbicidal data from other tests have established that compounds according to this invention also selectively suppress quackgrass, yellow nutsedge and/or other weeds in one or more of the crops cotton, peanuts, bush beans and/or rape. For example, in Table VI are presented data showing the herbicidal selectivity of the compounds of Examples 1 and 2 against quackgrass in rape and snap beans. Unless otherwise noted; greenhouse tests in Table VI and in other tables below involved herbicide treatments by soil incorporation and an initial overhead irrigation followed by subirrigation as described above.
In other greenhouse tests, compounds according to this invention have shown selective control of a variety of annual and perennial weeds in various crops. As further illustrative, the compound of Example 1 selectively controlled purple nutsedge in both corn nd soybeans, the respective crop/weed GR15 /GR85 ratios (expressed in kg/ha) being 0.67/0.25 (S.F.=2.7) in corn and 1.1/0.25 (S.F.=4.5) in soybeans. The compound of Example 8 has shown selective control of yellow nutsedge and quackgrass in corn and soybeans. The respective crop/yellownutsedge GR15 /GR85 ratios being >2.2/0.95 (S.F.=2.5) in corn; 2.2/0.5 (SF=4.5) in soybeans and the respective GR15 /GR85 ratios for both corn and soybeans in quackgrass being >2.2/0.5 (S.F.=4.5). In a test against yellow nutsedge in cotton, the GR15 /GR85 ratio (average of two replicates) was 2.0/0.95 (S.F.=2).
(§5) In another greenhouse test, the compounds of Examples 3-5, 9 and 10 were tested for their herbicidal efficacy against a variety of resistant annual and perennial weeds in rape.

corn = assay: as above; type: in vivo
Description: as §1, §2, §3
In Table IV pre-emergence herbicidal activity data are presented comparing the relative efficacy of the invention compounds and said prior art compounds as selective herbicides against the resistant and troublesome perennial weeds quackgrass and yellow nutsedge in soybeans and corn, respectively. These weeds are commonly associated with such major crops as corn and soybeans. The test data in Table IV were obtained under identical procedural conditions and represent two replicate runs (except for the compound of Example 9 which was present in one comparative test). The test procedure was the same as described for Tables II and III but modified by the application of an initial overhead irrigation equivalent to 1/4" (0.64 cm) rainfall; subsequent watering was accomplished by subirrigation. "NS" means non-selective within the test limits.
as §4

soybeans = assay: Herbicidal effect in a variety of soil types; type: in vivo
Quackgrass [1] = assay: Herbicidal effect in a variety of soil types; type: in vivo; settings: for selectivity factor (GR15/GR85): in soybeans
Description: The herbicide treatments were by soil incorporation with seeds planted 0.375 in (0.95 cm) deep, with 0.25 in (0.64 cm overhead irrigation. Observations were made about three weeks after treatment. Selectivity factors are shown in parenthesis.

wild proso millet = assay: Greenhouse pre-emergence GR15/GR85 selectivity test; type: in vivo, wild proso millet (panicum milicaeum); settings: Table XIV
Description: as §1, with “After treatment, the pans are given an initial overhead irrigation of eater, equivalent to one-fourth inch (0.64 cm) rainfall, then watered by subirrigation as need to give adequate moisture for germination and growth.” left out
as §3
(§6) Unless otherwise noted; greenhouse tests in Table VI and in other tables below involved herbicide treatments by soil incorporation and an initial overhead irrigation followed by subirrigation as described above.

rape = assay: as above; type: in vivo; settings: Table VI
Description: as §1, §2, §3, §4, §5

fall panicum = assay: as above; type: in vivo; settings: Table XIV
Description: as §1, with “After treatment, the pans are given an initial overhead irrigation of eater, equivalent to one-fourth inch (0.64 cm) rainfall, then watered by subirrigation as need to give adequate moisture for germination and growth.” left out
as §3, §6

Yellow Nutsedge = assay: as above; type: in vivo
Description: as §1, with “After treatment, the pans are given an initial overhead irrigation of eater, equivalent to one-fourth inch (0.64 cm) rainfall, then watered by subirrigation as need to give adequate moisture for germination and growth.” left out
as §3
(§7) These weeds are commonly associated with such major crops as corn and soybeans. […] The test procedure was the same as described for Tables II and III but modified by the application of an initial overhead irrigation equivalent to 1/4" (0.64 cm) rainfall; subsequent watering was accomplished by subirrigation. "NS" means non-selective within the test limits.
as §6

Quackgrass [2] = assay: as above; type: in vivo
Description: as §1, with “After treatment, the pans are given an initial overhead irrigation of eater, equivalent to one-fourth inch (0.64 cm) rainfall, then watered by subirrigation as need to give adequate moisture for germination and growth.” left out
as §3, §7, §6

[3] = Drummer silty clay, Table XVII A
[4] = Drummer silty clay, Table XVII B
[5] = Drummer silty clay, Table XVII C
[6] = Wabash silty clay, Table XVII B
[7] = Wabash silty clay, Table XVII C

## CCOCN(C(=O)CCl)c1c(C)cccc1C(F)(F)F [Example 1, N-(ethoxymethyl)-2'-trifluoromethyl-6'-methyl-2-chloroacetanilide]
Purple nutsedge; in corn
  GR85: 0.25 kg/ha
  S.F. (GR15/GR85): 2.7
Purple nutsedge; in soybeans
  GR85: 0.25 kg/ha
  S.F. (GR15/GR85): 4.5
corn; Table IV, Replicate #1
  GR15: 0.76 Kg/Ha
corn; Table IV, Replicate #2
  GR15: 0.76 Kg/Ha
corn; Table V
  GR15: 2.2 Kg/Ha
corn; Table XII
  GR15: 0.69 Kg/Ha
corn; Table XIII
  GR15: 0.69 Kg/Ha
corn; corn/purple nutsedge
  GR15: 0.67 kg/ha
soybeans; [3]
  GR15: > 2.2 Kg/Ha
soybeans; [4]
  GR15: 2.2 Kg/Ha
soybeans; [5]
  GR15: 2.0 Kg/Ha
soybeans; Florida muck, Table XVII A
  GR15: > 2.2 Kg/Ha
soybeans; Florida muck, Table XVII B
  GR15: 2.2 Kg/Ha
soybeans; Florida muck, Table XVII C
  GR15: > 2.2 Kg/Ha
soybeans; Florida sand, Table XVII A
  GR15: 2.0 Kg/Ha
soybeans; Florida sand, Table XVII B
  GR15: 2.2 Kg/Ha
soybeans; Ray silt loam, Table XVII A
  GR15: 1.1 Kg/Ha
soybeans; Ray silt loam, Table XVII B
  GR15: 2.2 Kg/Ha
soybeans; Ray silt loam, Table XVII C
  GR15: 2.0 Kg/Ha
soybeans; Sarpy silty clay, Table XVII A
  GR15: > 2.2 Kg/Ha
soybeans; Sarpy silty clay, Table XVII B
  GR15: 2.2 Kg/Ha
soybeans; Sarpy silty clay, Table XVII C
  GR15: > 2.2 Kg/Ha
soybeans; [6]
  GR15: 2.2 Kg/Ha
soybeans; [7]
  GR15: 2.2 Kg/Ha
Quackgrass [1]; [3]
  GR85: 0.11 Kg/Ha
  selectivity factor (GR15/GR85): 20
Quackgrass [1]; [4]
  GR85: 0.17 Kg/Ha
  selectivity factor (GR15/GR85): 13
Quackgrass [1]; [5]
  GR85: 0.13 Kg/Ha
  selectivity factor (GR15/GR85): 14.5
Quackgrass [1]; Florida muck, Table XVII A
  GR85: 0.52 Kg/Ha
  selectivity factor (GR15/GR85): > 4.5
Quackgrass [1]; Florida muck, Table XVII B
  GR85: 0.78 Kg/Ha
  selectivity factor (GR15/GR85): > 3
Quackgrass [1]; Florida muck, Table XVII C
  GR85: 0.74 Kg/Ha
  selectivity factor (GR15/GR85): > 3
Quackgrass [1]; Florida sand, Table XVII A
  GR85: 0.2 Kg/Ha
  selectivity factor (GR15/GR85): 10
Quackgrass [1]; Florida sand, Table XVII B
  GR85: 0.48 Kg/Ha
  selectivity factor (GR15/GR85): 4.5
Quackgrass [1]; Ray silt loam, Table XVII A
  GR85: 0.22 Kg/Ha
  selectivity factor (GR15/GR85): 5
Quackgrass [1]; Ray silt loam, Table XVII B
  GR85: 0.13 Kg/Ha
  selectivity factor (GR15/GR85): 16.5
Quackgrass [1]; Ray silt loam, Table XVII C
  GR85: 0.10 Kg/Ha
  selectivity factor (GR15/GR85): 19.5
Quackgrass [1]; Sarpy silty clay, Table XVII A
  GR85: 0.28 Kg/Ha
  selectivity factor (GR15/GR85): > 8
Quackgrass [1]; Sarpy silty clay, Table XVII B
  GR85: 0.10 Kg/Ha
  selectivity factor (GR15/GR85): 22
Quackgrass [1]; Sarpy silty clay, Table XVII C
  GR85: 0.13 Kg/Ha
  selectivity factor (GR15/GR85): > 16.5
Quackgrass [1]; Wabash silty clay, Table XVII A
  GR85: 0.28 Kg/Ha
Quackgrass [1]; [6]
  GR85: 0.13 Kg/Ha
  selectivity factor (GR15/GR85): 17
Quackgrass [1]; [7]
  GR85: 0.07 Kg/Ha
  selectivity factor (GR15/GR85): 31.5
Wild proso millet
  GR85 Rate: 1.1 Kg/Ha
Wild proso millet; in soybeans
  selectivity factor (GR15/GR85): > 1.0
rape
  GR15 Rate: 0.85 Kg/Ha
Fall panicum
  GR85 Rate: < 0.07 Kg/Ha
Fall panicum; in soybeans
  selectivity factor (GR15/GR85): > 16
Yellow Nutsedge; Table IV, Replicate #1
  GR85: 0.20 Kg/Ha
Yellow Nutsedge; Table IV, Replicate #2
  GR85: 0.12 Kg/Ha
Yellow Nutsedge; Table V
  GR85: 0.10 Kg/Ha
Yellow Nutsedge; Table XII
  GR85: 0.24 Kg/Ha
Yellow Nutsedge; in rice
  selectivity with respect to yellow nutsedge in rice: non-selective
Yellow Nutsedge; yellow nutsedge in corn, Table IV, Replicate #1
  selectivity factor (GR15/GR85): 4
Yellow Nutsedge; yellow nutsedge in corn, Table IV, Replicate #2
  selectivity factor (GR15/GR85): 6
Yellow Nutsedge; yellow nutsedge in corn, Table V
  selectivity factor (GR15/GR85): 22
Yellow Nutsedge; yellow nutsedge in corn, Table XII
  selectivity factor (GR15/GR85): 2.9
Yellow Nutsedge; yellow nutsedge in cotton, Table XII
  selectivity factor (GR15/GR85): 8
Yellow Nutsedge; yellow nutsedge in soybeans, Table IV, Replicate #1
  selectivity factor (GR15/GR85): 15
Yellow Nutsedge; yellow nutsedge in soybeans, Table IV, Replicate #2
  selectivity factor (GR15/GR85): 18
Yellow Nutsedge; yellow nutsedge in soybeans, Table V
  selectivity factor (GR15/GR85): 28
Yellow Nutsedge; yellow nutsedge in soybeans, Table XII
  selectivity factor (GR15/GR85): 3.6
Quackgrass [2]; Table IV, Replicate #1
  GR85: 0.18 Kg/Ha
Quackgrass [2]; Table IV, Replicate #2
  GR85: 0.16 Kg/Ha
Quackgrass [2]; Table V
  GR85: 0.08 Kg/Ha
Quackgrass [2]; Table V, quackgrass and yellow nutsedge in corn and soybeans
  selectivity factors relative to prior art compounds: exceedingly higher selectivity factors
Quackgrass [2]; Table VI
  GR85 Rate: 0.12 Kg/Ha
Quackgrass [2]; Table XIII
  GR85: 0.07 Kg/Ha
Quackgrass [2]; in wheat
  selectivity against quackgrass in wheat: non-selective
Quackgrass [2]; quackgrass in corn, Table IV, Replicate #1
  selectivity factor (GR15/GR85): 4
Quackgrass [2]; quackgrass in corn, Table IV, Replicate #2
  selectivity factor (GR15/GR85): 5
Quackgrass [2]; quackgrass in corn, Table V
  selectivity factor (GR15/GR85): 27.5
Quackgrass [2]; quackgrass in corn, Table XIII
  selectivity factor (GR15/GR85): 10
Quackgrass [2]; quackgrass in rape, Table VI
  selectivity factor (GR15/GR85): 7
Quackgrass [2]; quackgrass in snapbeans, Table VI
  selectivity factor (GR15/GR85): 7
Quackgrass [2]; quackgrass in soybeans, Table IV, Replicate #1
  selectivity factor (GR15/GR85): 17
Quackgrass [2]; quackgrass in soybeans, Table IV, Replicate #2
  selectivity factor (GR15/GR85): 14
Quackgrass [2]; quackgrass in soybeans, Table V
  selectivity factor (GR15/GR85): 35
Quackgrass [2]; quackgrass in soybeans, Table XIII
  selectivity factor (GR15/GR85): 11.6
